Reference: ChEMBL document CHEMBL1157981, “Goniotriocin and (2,4-cis- and -trans)-xylomaticinones, bioactive annonaceous acetogenins from Goniothalamus giganteus” (J Nat Prod, 1999)
≈ marks a conversion by molar mass, not a printed value.

Tests used:
A549 = test: Cytotoxicity against human A549 cells by MTT assay; format: functional; conditions: read-out: ED50 (the source's name)
MCF7 = test: Cytotoxicity against human MCF7 cells by MTT assay; format: functional; conditions: read-out: ED50 (the source's name)
HT-29 = test: Cytotoxicity against human HT-29 cells by MTT assay; format: functional; conditions: read-out: ED50 (the source's name)
A498 = test: Cytotoxicity against human A-498 cells by MTT assay; format: functional; conditions: read-out: ED50 (the source's name)
PC-3 = test: Cytotoxicity against human PC-3 cells by MTT assay; format: functional; conditions: read-out: ED50 (the source's name)
MIA PaCa-2 = test: Cytotoxicity against human PaCa2 cells by MTT assay; format: functional; conditions: read-out: ED50 (the source's name)
[1] = Toxicity in brine shrimp; format: organism-based; conditions: artemia, in vivo
Aedes aegypti = test: Pesticidal activity against yellow fever mosquito larvae by microtiter plate assay; format: functional

Structure (SMILES) | EC50 (A549) | EC50 (MCF7) | EC50 (HT-29) | EC50 (A498) | EC50 (PC-3) | EC50 (MIA PaCa-2) | LC50 [1] | LC50 (Aedes aegypti)
COc1cccc2c1C(=O)c1c(O)c3c(c(O)c1C2=O)C[C@@](O)(C(=O)CO)C[C@@H]3O[C@H]1C[C@H](N)[C@H](O)[C@H](C)O1 [DOXORUBICIN] | 0.017 µg/mL (≈ 0.0313 µM) | 0.21 µg/mL (≈ 0.386 µM) | 0.031 µg/mL (≈ 0.057 µM) | 0.019 µg/mL (≈ 0.035 µM) | 0.062 µg/mL (≈ 0.114 µM) | 0.023 µg/mL (≈ 0.0423 µM) | – | –
CCCCCCCCCCCCC(=O)C[C@@H]1C[C@@H](O)[C@@H](CC[C@H](O)[C@@H]2CC[C@@H](CCCCCC(O)CC3=CC(C)OC3=O)O2)O1 (stereo not given in full) [GONIOTRICIN] | 0.033 µg/mL (≈ 0.0518 µM) | 0.0033 µg/mL (≈ 0.00518 µM) | 0.0012 µg/mL (≈ 0.00188 µM) | 0.0011 µg/mL (≈ 0.00173 µM) | 0.26 µg/mL (≈ 0.408 µM) | 1.4 µg/mL (≈ 2.2 µM) | 2.7 µg/mL (≈ 4.24 µM) | 3.6 µg/mL (≈ 5.65 µM)
C=C(C)[C@H]1Cc2c(ccc3c2O[C@@H]2COc4cc(OC)c(OC)cc4[C@@H]2C3=O)O1 [ROTENONE] | – | – | – | – | – | – | – | 0.3 µg/mL (≈ 0.761 µM)
